Experimental data published in patent US10322191B2, “Targeted conjugates and particles and formulations thereof” (TARVEDA THERAPEUTICS, INC., priority 2014, dated 2019).
Like-named read-outs stand apart in the source and are kept apart here. Bridge positions count the residues as written; N and C are the ends. Square brackets hold non-standard residues; d marks the D form. Peptide text beside a SMILES is read from it. * marks the point of attachment. X1 = COc1cc2cc(c1Cl)N(C)C(=O)C[C@H](OC(=O)[C@H](C)N(C)C(=O)CCS*)[C@]1(C)O[C@H]1[C@H](C)[C@@H]1C[C@@](O)(NC(=O)O1)[C@H](OC)/C=C/C=C(\C)C2; Thr(ol) = C[C@@H](O)[C@H](N)CO

System: NCI-H524 (ATCC) human lung cancer cells
Type: cell-based
Protocol: Conjugates were assessed in an in vitro assay evaluating inhibition of cell proliferation. NCI-H524 (ATCC) human lung cancer cells were plated in 96 well, V-bottomed plates (Costar) at a concentration of 5,000 cells/well and 24 hours later were treated with compound for 2 hours and further incubated 70 hours. Compound starting dose was 20 μM and three-fold serial dilutions were done for a total of ten points. After 2 hours of treatment, cells were spun down, the drug containing media was removed, and fresh complete medium was added and used to resuspend the cells, which were spun again. After removal of the wash media, the cells were resuspended in complete medium, then transferred into white walled, flat bottomed 96 well plates. […] Proliferation was measured using CellTiter Glo reagent using the standard protocol (Promega) and a Glomax multi+detection system (Promega). Percent proliferation inhibition was calculated using the following formula: % inhibition=(control-treatment)/control*100. Control is defined as vehicle alone. IC50 curves were generated using the nonlinear regression analysis (four parameter) with GraphPad Prism 6.
Conjugates of the present invention were assessed in an in vitro assay evaluating inhibition of cell proliferation. NCI-H524 (ATCC) human lung cancer cells were plated in 96 well, V-bottomed plates (Costar) at a concentration of 5,000 cells/well. 24 hours later, cells were treated with either conjugate for 2 hours and further incubated 70 hours, or for octreotide competition experiments, treated with 100 μM octreotide for 30 min, and then treated with conjugate for 2 hours, and further incubated for 70 hours. Conjugate starting dose was 20 μM and three fold serial dilutions were done for a total of ten points. After 2 hours of treatment, cells were spun down, the drug containing media was removed, and fresh complete medium was added and used to resuspend the cells, which were spun again. After removal of the wash media, the cells were resuspended in complete medium, then transferred into white walled, flat bottomed 96 well plates. […] Proliferation was measured using CellTiter Glo reagent using the standard protocol (Promega) and a Glomax multi+detection system (Promega). Percent proliferation inhibition was calculated using the following formula: % inhibition=(control-treatment)/control*100. Control is defined as vehicle alone. IC50 curves were generated using the nonlinear regression analysis (four parameter) with GraphPad Prism 6.
Conjugates of the present invention were tested for their activity dependence on the somatostatin receptor. Active agent Z in the conjugate was selected from auristatin, carbazitaxel, DM1, doxorubicin, platinum, SN-38 and vinblastine. Active agent Z is connected to octreotide with various linkers. Proliferation IC50 values of the conjugates were measured. Proliferation IC50 values of the conjugates without octreotide competition were also measured. The ratio of IC50 with octreotide competition and IC50 without octreotide competition is an indicator of whether activity is at least partially dependent on bind to the somatostatin receptor.

[1] = Table 6, treated 2 hours, further incubated 70 hours, read-out: H524 IC50
[2] = read-out: H524 IC50 + 100 μM octreotide, Table 6, with octreotide competition
[3] = read-out: H524 IC50+ 100 uM octreotide, Table 15, 100 μM octreotide for 30 min, then conjugate 2 hours, 70 hours incubation
[4] = Table 15, treated 2 hours, further incubated 70 hours, read-out: H524 IC50

CC[C@H](C)[C@@H]([C@@H](CC(=O)N1CCC[C@H]1[C@H](OC)[C@@H](C)C(=O)N[C@H](C)[C@@H](O)c1ccccc1)OC)N(C)C(=O)[C@@H](NC(=O)[C@H](C(C)C)N(C)C(=O)OCc1ccc(NC(=O)[C@H](CCCNC(N)=O)NC(=O)[C@@H](NC(=O)CCCCCN2C(=O)CC(SCCC(=O)N[C@H](Cc3ccccc3)C(=O)N[C@H]3CSSC[C@@H](C(=O)N[C@H](CO)[C@@H](C)O)NC(=O)[C@H]([C@@H](C)O)NC(=O)[C@H](CCCCN)NC(=O)[C@@H](Cc4c[nH]c5ccccc45)NC(=O)[C@H](Cc4ccccc4)NC3=O)C2=O)C(C)C)cc1)C(C)C (stereo partly shown) [Conjugate 5]
IC50 [1]: 433 nM
IC50 [2]: 826 nM

COc1cc2cc(c1Cl)N(C)C(=O)C[C@H](OC(=O)[C@H](C)N(C)C(=O)CCSSCCC(=O)NCCOCCOCCOCCOCCOCCOCCOCCOCCC(=O)N[C@H](Cc1ccccc1)C(=O)N[C@H]1CSSC[C@@H](C(=O)N[C@H](CO)[C@@H](C)O)NC(=O)[C@H]([C@@H](C)O)NC(=O)[C@H](CCCCN)NC(=O)[C@@H](Cc3c[nH]c4ccccc34)NC(=O)[C@H](Cc3ccccc3)NC1=O)[C@]1(C)O[C@H]1[C@H](C)[C@@H]1C[C@@](O)(NC(=O)O1)[C@H](OC)/C=C/C=C(\C)C2 [Conjugate 6]
IC50 [1]: 234 nM
IC50 [2]: 629 nM
IC50 [3]: 629 nM

COc1cc2cc(c1Cl)N(C)C(=O)C[C@H](OC(=O)[C@H](C)N(C)C(=O)CCSSC[C@H](N)C(=O)N[C@@H](CCCCN)C(=O)N[C@@H](CCCCN)C(=O)N[C@@H](CCCCN)C(=O)N[C@@H](CCCCN)C(=O)N[C@H](Cc1ccccc1)C(=O)N[C@H]1CSSC[C@@H](C(=O)N[C@H](CO)[C@@H](C)O)NC(=O)[C@H]([C@@H](C)O)NC(=O)[C@H](CCCCN)NC(=O)[C@@H](Cc3c[nH]c4ccccc34)NC(=O)[C@H](Cc3ccccc3)NC1=O)[C@]1(C)O[C@H]1[C@H](C)[C@@H]1C[C@@](O)(NC(=O)O1)[C@H](OC)/C=C/C=C(\C)C2 [Conjugate 7] (H-C(X1)KKKK[dF]CF[dW]KTC[Thr(ol)]; disulfide 7-12)
IC50 [1]: 955 nM
IC50 [2]: 1770 nM
IC50 [3]: 1770 nM

COc1cc2cc(c1Cl)N(C)C(=O)C[C@H](OC(=O)[C@H](C)N(C)C(=O)CCSC1CC(=O)N(CCCNC(=O)CC[C@H]3C(=O)N[C@@H](Cc4ccc(O)cc4)C(=O)N[C@H](Cc4c[nH]c5ccccc45)C(=O)N[C@@H](CCCCN)C(=O)N[C@@H]([C@@H](C)O)C(=O)N[C@@H](Cc4ccccc4)C(=O)N3C)C1=O)[C@]1(C)O[C@H]1[C@H](C)[C@@H]1C[C@@](O)(NC(=O)O1)[C@H](OC)/C=C/C=C(\C)C2 (stereo partly shown) [Conjugate 12]
IC50 [4]: 1680 nM
IC50 [3]: 2340 nM

COc1cc2cc(c1Cl)N(C)C(=O)C[C@H](OC(=O)[C@H](C)N(C)C(=O)CCSSCCC(=O)N1CCN(C(=O)CC[C@H]3C(=O)N[C@@H](Cc4ccc(O)cc4)C(=O)N[C@H](Cc4c[nH]c5ccccc45)C(=O)N[C@@H](CCCCN)C(=O)N[C@@H]([C@@H](C)O)C(=O)N[C@@H](Cc4ccccc4)C(=O)N3C)CC1)[C@]1(C)O[C@H]1[C@H](C)[C@@H]1C[C@@](O)(NC(=O)O1)[C@H](OC)/C=C/C=C(\C)C2 [Conjugate 26]
IC50 [4]: 787 nM
IC50 [3]: 1160 nM

COc1cc2cc(c1Cl)N(C)C(=O)C[C@H](OC(=O)[C@H](C)N(C)C(=O)CCSSC1CCN(C(=O)CC[C@H]3C(=O)N[C@@H](Cc4ccc(O)cc4)C(=O)N[C@H](Cc4c[nH]c5ccccc45)C(=O)N[C@@H](CCCCN)C(=O)N[C@@H]([C@@H](C)O)C(=O)N[C@@H](Cc4ccccc4)C(=O)N3C)CC1)[C@]1(C)O[C@H]1[C@H](C)[C@@H]1C[C@@](O)(NC(=O)O1)[C@H](OC)/C=C/C=C(\C)C2 [Conjugate 28]
IC50 [4]: 669 nM
IC50 [3]: 1000 nM

COc1cc2cc(c1Cl)N(C)C(=O)C[C@H](OC(=O)[C@H](C)N(C)C(=O)CCSSCC(=O)NCCNC(=O)CC[C@H]1C(=O)N[C@@H](Cc3ccc(O)cc3)C(=O)N[C@H](Cc3c[nH]c4ccccc34)C(=O)N[C@@H](CCCCN)C(=O)N[C@@H]([C@@H](C)O)C(=O)N[C@@H](Cc3ccccc3)C(=O)N1C)[C@]1(C)O[C@H]1[C@H](C)[C@@H]1C[C@@](O)(NC(=O)O1)[C@H](OC)/C=C/C=C(\C)C2 [Conjugate 30]
IC50 [4]: 470 nM
IC50 [3]: 2020 nM

COc1cc2cc(c1Cl)N(C)C(=O)C[C@H](OC(=O)[C@H](C)N(C)C(=O)CCSSCCNC(=O)[C@@H](NC(=O)[C@@H]1CSSC[C@H](NC(=O)[C@H](N)Cc3ccccc3)C(=O)N[C@@H](Cc3csc4ccccc34)C(=O)N[C@H](Cc3c[nH]c4ccccc34)C(=O)N[C@@H](CCCCN)C(=O)N[C@@H]([C@@H](C)O)C(=O)N1)[C@@H](C)O)[C@]1(C)O[C@H]1[C@H](C)[C@@H]1C[C@@](O)(NC(=O)O1)[C@H](OC)/C=C/C=C(\C)C2 [Conjugate 37]
IC50 [4]: 44 nM
IC50 [3]: 166 nM

COc1cc2cc(c1Cl)N(C)C(=O)C[C@H](OC(=O)[C@H](C)N(C)C(=O)CCSSCCC(=O)NCCNC(=O)[C@@H](NC(=O)[C@@H]1CSSC[C@H](NC(=O)[C@H](N)Cc3ccccc3)C(=O)N[C@@H](Cc3ccc(O)cc3)C(=O)N[C@H](Cc3c[nH]c4ccccc34)C(=O)N[C@@H](CCCCN)C(=O)N[C@@H]([C@@H](C)O)C(=O)N1)[C@@H](C)O)[C@]1(C)O[C@H]1[C@H](C)[C@@H]1C[C@@](O)(NC(=O)O1)[C@H](OC)/C=C/C=C(\C)C2 [Conjugate 43]
IC50 [4]: 1160 nM
IC50 [3]: 2050 nM

COc1cc2cc(c1Cl)N(C)C(=O)C[C@H](OC(=O)[C@H](C)N(C)C(=O)CCSSCCC(=O)NCCNC(=O)[C@H](Cc1c[nH]c3ccccc13)NC(=O)[C@@H]1CSSC[C@H](NC(=O)[C@H](N)Cc3ccccc3)C(=O)N[C@@H](Cc3ccc(O)cc3)C(=O)N[C@H](Cc3c[nH]c4ccccc34)C(=O)N[C@@H](CCCCN)C(=O)N[C@@H]([C@@H](C)O)C(=O)N1)[C@]1(C)O[C@H]1[C@H](C)[C@@H]1C[C@@](O)(NC(=O)O1)[C@H](OC)/C=C/C=C(\C)C2 [Conjugate 45]
IC50 [4]: 345 nM
IC50 [3]: 481 nM

COc1cc2cc(c1Cl)N(C)C(=O)C[C@H](OC(=O)[C@H](C)N(C)C(=O)CCSSCCC(=O)NCCOCCOCCOCCNC(=O)[C@@H](NC(=O)[C@@H]1CSSC[C@H](NC(=O)[C@H](N)Cc3ccccc3)C(=O)N[C@@H](Cc3ccc(O)cc3)CN[C@H](Cc3c[nH]c4ccccc34)C(=O)N[C@@H](CCCCN)C(=O)N[C@@H]([C@@H](C)O)C(=O)N1)[C@@H](C)O)[C@]1(C)O[C@H]1[C@H](C)[C@@H]1C[C@@](O)(NC(=O)O1)[C@H](OC)/C=C/C=C(\C)C2 [Conjugate 47]
IC50 [4]: 2130 nM
IC50 [3]: 1270 nM

COc1cc2cc(c1Cl)N(C)C(=O)C[C@H](OC(=O)[C@H](C)N(C)C(=O)CCSSCCNC(=O)[C@H](Cc1c[nH]c3ccccc13)NC(=O)[C@@H]1CSSC[C@H](NC(=O)[C@H](N)Cc3ccccc3)C(=O)N[C@@H](Cc3ccc(O)cc3)CN[C@H](Cc3c[nH]c4ccccc34)C(=O)N[C@@H](CCCCN)C(=O)N[C@@H]([C@@H](C)O)C(=O)N1)[C@]1(C)O[C@H]1[C@H](C)[C@@H]1C[C@@](O)(NC(=O)O1)[C@H](OC)/C=C/C=C(\C)C2 [Conjugate 49]
IC50 [4]: 69 nM
IC50 [3]: 243 nM

COc1cc2cc(c1Cl)N(C)C(=O)C[C@H](OC(=O)[C@H](C)N(C)C(=O)CCSSCCC(=O)NCCNC(=O)[C@@H](NC(=O)[C@@H]1CSSC[C@H](NC(=O)[C@H](N)Cc3c[nH]c4ccccc34)C(=O)N[C@@H](Cc3ccc(O)cc3)C(=O)N[C@H](Cc3c[nH]c4ccccc34)C(=O)N[C@@H](CCCCN)C(=O)N[C@@H]([C@@H](C)O)C(=O)N1)[C@@H](C)O)[C@]1(C)O[C@H]1[C@H](C)[C@@H]1C[C@@](O)(NC(=O)O1)[C@H](OC)/C=C/C=C(\C)C2 [Conjugate 51]
IC50 [4]: 124 nM
IC50 [3]: 238 nM
